PubChem BioAssay AID256 (DTP/NCI, 2004)
Toxic doses and inconclusive results are not listed. The calls were made as follows: active = survival T/C of 150% or more; inactive = T/C below 125% in these data.

Tested on: CD2F1 mice, L1210 leukemia ip, survival T/C
Assay: NCI In Vivo Anticancer Drug Screen. Data for tumor model L1210 Leukemia (intraperitoneal) in CD2F1 (CDF1) mice
Conditions: endpoint: mean survival time, higher = longer survival
Procedure: The antitumor activity of compounds was measured in mice bearing transplantable tumors. Survival or tumor size were measured and the results are expressed as the measurement made in the treated group (T) divided by the measurement made in the vehicle treated control group (C). The tumor model used in this assay is L1210 Leukemia (intraperitoneal) in CD2F1 (CDF1) mice

[1] = dose: 100.0 mg/kg/injection, schedule: Q01DX001 (ip), vehicle: saline with Tween-80
[2] = dose: 200.0 mg/kg/injection, schedule: Q01DX001 (ip), vehicle: saline with Tween-80
[3] = dose: 100.0 mg/kg/injection, schedule: Q04DX003 (ip), vehicle: saline with Tween-80
[4] = dose: 200.0 mg/kg/injection, schedule: Q04DX003 (ip), vehicle: saline with Tween-80
[5] = dose: 400.0 mg/kg/injection, schedule: Q04DX003 (ip), vehicle: saline with Tween-80

Measured: T/C

c1ccc(-c2ccc(C3=NC(c4ccccc4)N4C3C4c3ccccc3)cc2)cc1 (configuration not stated)
inactive: dose: 6.25 mg/kg/injection, schedule: Q01DX001 (ip), vehicle: saline with Tween-80 103 % of control | dose: 6.25 mg/kg/injection, schedule: Q01DX009 (ip), vehicle: saline with Tween-80 91 % of control | dose: 12.5 mg/kg/injection, schedule: Q01DX001 (ip), vehicle: saline with Tween-80 86 % of control | dose: 12.5 mg/kg/injection, schedule: Q01DX009 (ip), vehicle: saline with Tween-80 94 % of control | dose: 25.0 mg/kg/injection, schedule: Q01DX001 (ip), vehicle: saline with Tween-80 92 % of control

OC(C/C(=N\Nc1ccccc1)c1ccc(Br)cc1)(C(F)(F)F)C(F)(F)F
inactive: [1] 96 % of control | [2] 95 % of control | dose: 400.0 mg/kg/injection, schedule: Q01DX001 (ip), vehicle: saline with Tween-80 97 % of control

ClCc1ccc(CCl)c(Cl)c1Cl
inactive: [3] 96 % of control

O=C(/C=C/c1ccccc1)Nc1cccc2ccccc12
inactive: dose: 100.0 mg/kg/injection, schedule: Q04DX002 (ip), vehicle: saline with Tween-80 90 % of control | dose: 200.0 mg/kg/injection, schedule: Q04DX002 (ip), vehicle: saline with Tween-80 105 % of control | dose: 400.0 mg/kg/injection, schedule: Q04DX002 (ip), vehicle: saline with Tween-80 94 % of control

Cn1c[n+](C)c2ncncc21
inactive: dose: 3.8 mg/kg/injection, schedule: Q01DX005 (ip), vehicle: water 102 % of control | dose: 7.5 mg/kg/injection, schedule: Q01DX005 (ip), vehicle: water 102 % of control | dose: 15.0 mg/kg/injection, schedule: Q01DX005 (ip), vehicle: water 117 % of control | dose: 30.0 mg/kg/injection, schedule: Q01DX005 (ip), vehicle: water 98 % of control | dose: 60.0 mg/kg/injection, schedule: Q01DX005 (ip), vehicle: water 95 % of control

CC(=O)N(C)c1ccc(NC(=O)Nc2ccc(C)c([N+](=O)[O-])c2)cc1
inactive: dose: 50.0 mg/kg/injection, schedule: Q01DX009 (ip), vehicle: saline with Tween-80 102 % of control | dose: 100.0 mg/kg/injection, schedule: Q01DX009 (ip), vehicle: saline with Tween-80 94 % of control | dose: 200.0 mg/kg/injection, schedule: Q01DX009 (ip), vehicle: saline with Tween-80 90 % of control

CCC[CH2][Sn]1([CH2]CCC)[O]C2C(CO)OC(n3ccc4c(N)ncnc43)C2[O]1 (configuration not stated)
inactive: dose: 0.39 mg/kg/injection, schedule: Q01DX005 (ip), vehicle: water 97 % of control | dose: 0.78 mg/kg/injection, schedule: Q01DX005 (ip), vehicle: water 103 % of control | dose: 1.56 mg/kg/injection, schedule: Q01DX005 (ip), vehicle: other 111 % of control | dose: 1.56 mg/kg/injection, schedule: Q01DX005 (ip), vehicle: water 90 % of control | dose: 3.13 mg/kg/injection, schedule: Q01DX005 (ip), vehicle: other 95 % of control | dose: 3.13 mg/kg/injection, schedule: Q01DX005 (ip), vehicle: water 106 % of control

COc1cc2ccc3c(c2cc1OC)C(=O)CNC3C (configuration not stated)
inactive: dose: 3.13 mg/kg/injection, schedule: Q01DX009 (ip), vehicle: saline 105 % of control | dose: 6.25 mg/kg/injection, schedule: Q01DX009 (ip), vehicle: saline 98 % of control | dose: 12.5 mg/kg/injection, schedule: Q01DX009 (ip), vehicle: saline 104 % of control

C=C(C)CS(=O)(=O)Cc1ccccc1
inactive: dose: 50.0 mg/kg/injection, schedule: Q01DX001 (ip), vehicle: Klucel (hydroxypropylcellulose) (HPC) 96 % of control | dose: 100.0 mg/kg/injection, schedule: Q01DX001 (ip), vehicle: Klucel (hydroxypropylcellulose) (HPC) 102 % of control | dose: 200.0 mg/kg/injection, schedule: Q01DX001 (ip), vehicle: Klucel (hydroxypropylcellulose) (HPC) 102 % of control

CCCCCC(O)C1CCCCC1C (configuration not stated)
inactive: [3] 105 % of control | [4] 102 % of control | [5] 90 % of control

O=C(COc1ccc(Cl)cc1Cl)Nc1cc[n+](Cc2ccc(S(=O)(=O)F)cc2)cc1
inactive: [3] 98 % of control | [4] 98 % of control | [5] 95 % of control

CC(C)N(CC(=O)O)CC(=O)O
inactive: dose: 100.0 mg/kg/injection, schedule: Q01DX001 (ip), vehicle: saline 100 % of control | dose: 200.0 mg/kg/injection, schedule: Q01DX001 (ip), vehicle: saline 100 % of control

O=C(Cl)N(c1ccccc1)c1ccccc1
inactive: [1] 91 % of control | [2] 100 % of control
